For data set [1], the target named is T1, 5-hydroxytryptamine receptor 1A (Homo sapiens, UniProt P08908).
T1 sequence (P08908 whole entry): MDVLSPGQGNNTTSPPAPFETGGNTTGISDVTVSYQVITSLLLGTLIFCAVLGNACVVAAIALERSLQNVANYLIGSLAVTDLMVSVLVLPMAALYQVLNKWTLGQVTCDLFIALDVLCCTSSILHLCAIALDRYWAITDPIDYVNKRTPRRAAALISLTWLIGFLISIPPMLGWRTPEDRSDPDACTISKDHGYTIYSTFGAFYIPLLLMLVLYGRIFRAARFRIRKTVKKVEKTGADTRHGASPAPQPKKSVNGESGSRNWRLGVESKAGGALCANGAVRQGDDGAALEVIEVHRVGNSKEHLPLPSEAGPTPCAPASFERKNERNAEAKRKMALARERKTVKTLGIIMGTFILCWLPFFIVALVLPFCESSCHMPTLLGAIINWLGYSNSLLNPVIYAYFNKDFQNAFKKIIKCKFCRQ
In words: Displacement of [3H]-8-OH-DPAT from human 5-HT1A receptor expressed in HEK293 cell membranes after 1 hr by microbeta counting analysis. In general terms: Displacement assays read how much labelled ligand stays bound in the presence of the test substance.

The next data set concerns the target D(2) dopamine receptor (Homo sapiens, UniProt P14416). Description: Displacement of [3H]raclopride from human dopamine D2L receptor expressed in HEK293 cell membranes after 1 hr by microbeta counting analysis. In kind it is cell-based.
The nature of data set [2]: Stability in mouse liver microsomes assessed as oxidative metabolism by measuring drug recovery at 10 uM preincubated for 10 mins followed by NADPH addition measured after 30 mins by liquid chromatographic method. It counts as ADME. Conditions: liver microsomes, read-out: Drug recovery. (In general: Liver microsomes are vesicles of endoplasmic reticulum, rich in cytochrome P450 enzymes.)

Data set [3] can be described thus: Retention factor, logKw of compound in MeOH/0.01 M phosphate buffer at pH 7.4 by RP-HPLC method. It counts as physicochemical.
Data set [4] has as its target 5-hydroxytryptamine receptor 7 (Homo sapiens, UniProt P34969). Description: Displacement of [3H]-5-CT from human 5-HT7b receptor expressed in HEK293 cell membranes after 1 hr by microbeta counting analysis.
A short description of data set [5]: Displacement of [3H]-prazosin from adrenergic alpha 1 receptor in pig brain cortical membranes after 50 mins by microbeta counting analysis. It counts as ADME, cell membranes, Sus scrofa.
For data set [6], the target named is 5-hydroxytryptamine receptor 6 (Homo sapiens, UniProt P50406). In words: Displacement of [3H]-LSD from human 5-HT6 receptor expressed in HEK293 cell membranes after 1 hr by microbeta counting analysis.

Molecules are shown by their SMILES. Where only a bound is given, the exact number is not on record here.

D(2) dopamine receptor, sequence (P14416 whole entry): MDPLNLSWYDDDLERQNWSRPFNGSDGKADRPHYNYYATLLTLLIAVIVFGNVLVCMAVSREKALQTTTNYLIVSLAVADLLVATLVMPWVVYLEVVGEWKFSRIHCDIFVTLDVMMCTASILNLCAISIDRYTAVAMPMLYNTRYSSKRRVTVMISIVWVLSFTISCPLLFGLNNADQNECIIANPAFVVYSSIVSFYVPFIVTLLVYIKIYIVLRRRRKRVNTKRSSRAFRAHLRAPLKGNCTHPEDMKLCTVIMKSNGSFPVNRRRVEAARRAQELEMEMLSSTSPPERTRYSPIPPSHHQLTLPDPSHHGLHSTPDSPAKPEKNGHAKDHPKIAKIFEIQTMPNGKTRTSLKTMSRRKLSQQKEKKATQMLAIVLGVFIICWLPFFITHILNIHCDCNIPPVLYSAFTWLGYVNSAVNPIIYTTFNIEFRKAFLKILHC
5-hydroxytryptamine receptor 6, sequence (P50406 whole entry): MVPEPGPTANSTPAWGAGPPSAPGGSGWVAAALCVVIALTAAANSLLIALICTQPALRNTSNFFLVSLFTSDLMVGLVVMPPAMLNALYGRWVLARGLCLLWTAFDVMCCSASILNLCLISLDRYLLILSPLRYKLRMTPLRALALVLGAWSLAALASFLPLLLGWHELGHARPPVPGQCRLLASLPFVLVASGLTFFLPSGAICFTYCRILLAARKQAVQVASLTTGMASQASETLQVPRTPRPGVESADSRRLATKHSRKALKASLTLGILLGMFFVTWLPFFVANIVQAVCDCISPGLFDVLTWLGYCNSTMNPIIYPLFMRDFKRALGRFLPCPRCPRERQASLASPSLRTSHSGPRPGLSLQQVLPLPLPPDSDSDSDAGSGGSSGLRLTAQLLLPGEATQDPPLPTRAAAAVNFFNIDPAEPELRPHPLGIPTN
5-hydroxytryptamine receptor 7, sequence (P34969 whole entry): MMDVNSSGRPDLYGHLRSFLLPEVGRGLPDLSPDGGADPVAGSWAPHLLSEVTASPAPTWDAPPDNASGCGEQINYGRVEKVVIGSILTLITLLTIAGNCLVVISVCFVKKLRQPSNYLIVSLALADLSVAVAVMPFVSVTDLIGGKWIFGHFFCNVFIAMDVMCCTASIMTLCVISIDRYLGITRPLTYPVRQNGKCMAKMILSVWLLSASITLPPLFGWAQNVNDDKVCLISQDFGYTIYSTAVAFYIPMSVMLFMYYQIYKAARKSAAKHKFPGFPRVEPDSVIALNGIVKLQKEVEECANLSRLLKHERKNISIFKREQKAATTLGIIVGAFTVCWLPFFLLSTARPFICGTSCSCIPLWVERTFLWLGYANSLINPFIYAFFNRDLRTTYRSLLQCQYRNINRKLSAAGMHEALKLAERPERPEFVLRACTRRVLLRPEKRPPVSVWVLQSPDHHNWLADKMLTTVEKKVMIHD

`C[C@@H]1CN(c2ccccc2-c2ccccc2)CCN1CCCCCC(=O)NCc1ccccc1`: the inhibitory constant (Ki) (commonly a measure of affinity in units of concentration, obtained from inhibition or displacement) in data set [1] is 101 nM; at D(2) dopamine receptor, 178 nM; in data set [4], 14 nM; in data set [5], 11.6 nM; in data set [6] it was 434 nM. In addition, the remaining at 0.5 h, 10 µM in data set [2] stood at 3%. In addition, in data set [3], the logKw was determined as 0.58.
As for `COc1ccc(-c2ccccc2N2CCN(CCCCCC(=O)NCc3ccc(OCCCN4CCOCC4)cc3)CC2)cc1`, the Ki was 105 nM in data set [1]; 260 nM at D(2) dopamine receptor; 18.5 nM in data set [4]; 53 nM in data set [5]; 1620 nM in data set [6]. Moreover, the remaining at 0.5 h, 10 µM in data set [2] was in the range of 3 to 3.3%. In addition, the logKw in data set [3] stood at 0.62.
In the case of `COc1ccc(-c2ccccc2N2CCN(CCOCCC(=O)NCc3cccnc3)CC2)cc1`, the remaining at 0.5 h, 10 µM in data set [2] worked out at 23%. In data set [3], this molecule registered a logKw of 0.23.
In the same order, the values of `COc1ccc(-c2ccccc2N2CCN(CCCCCC(=O)NCc3cccnc3)CC2)cc1` are 32% and 0.38.
As for `O=C(CCCCCN1CCN(c2ccccc2-c2ccccc2)CC1)NCc1ccc(OCCCN2CCOCC2)cc1`, the Ki in data set [1] turned out to be 149 nM; on D(2) dopamine receptor, 64 nM; in data set [4] it was 9.5 nM; in data set [5], 12.3 nM; in data set [6] it was 1150 nM. The remaining at 0.5 h, 10 µM in data set [2] amounted to 3.3%. The molecule also returned a logKw in data set [3] of 0.63.
`COc1ccc(-c2ccccc2N2CCN(CCCCCC(=O)NCc3ccncc3)CC2)cc1`: in data set [2], the remaining at 0.5 h, 10 µM was determined as 35%. This molecule also registered a logKw in data set [3] of 0.39.
With `COc1ccc(-c2ccccc2N2CCN(CCCCCC(=O)N[C@@H](C)c3ccccc3)CC2)cc1`, the Ki in data set [1] is 103 nM; on D(2) dopamine receptor, 177 nM; in data set [4], 15.5 nM; in data set [5], 22.1 nM; in data set [6], 652 nM. The remaining at 0.5 h, 10 µM in data set [2] was 21%. Moreover, the logKw in data set [3] is on record as 0.71.
Turning to `O=C(CCCCCN1CCN(c2ccccc2-c2ccccc2)CC1)NCc1ccc(OCCN2CCOCC2)cc1`, the Ki in data set [1] came out at 160 nM; at D(2) dopamine receptor, 136 nM; in data set [4], 16 nM; in data set [5] it was 7.4 nM; in data set [6] it was 1720 nM. In addition, the remaining at 0.5 h, 10 µM in data set [2] was 5%. Also, the logKw in data set [3] is 0.59.
With `N#Cc1ccc(CNC(=O)CCOCCN2CCN(c3ncccc3-c3ccc(F)cc3)CC2)cc1`, the inhibition constant (Ki) is 2630 nM in data set [1], 54 nM in data set [4], 156 nM in data set [5] and 1620 nM in data set [6]. For the same molecule, the remaining at 0.5 h, 10 µM in data set [2] is 1%. The molecule further registered a logKw in data set [3] of 0.15.
For `O=C(CCOCCN1CCN(c2ncccc2-c2ccccc2)CC1)NCc1ccc(C(F)(F)F)cc1`, the Ki in data set [1] amounted to 365 nM; in data set [4], 52 nM; in data set [5], 1220 nM; in data set [6], 1040 nM. For the same molecule, the remaining at 0.5 h, 10 µM in data set [2] was determined as 1%. Moreover, in data set [3], the logKw was 0.48.
Turning to `N#Cc1ccc(CNC(=O)CCOCCN2CCN(c3cccnc3-c3ccccc3)CC2)cc1`, the Ki in data set [1] was found to be 3840 nM; in data set [4], 87 nM; in data set [5], 310 nM; in data set [6] it was 3440 nM. Also, the remaining at 0.5 h, 10 µM in data set [2] stood at 2%. The logKw in data set [3] is recorded as -0.14.
Turning to `COc1ccc(-c2ccccc2N2CCN(CCOCCC(=O)NCc3ccccn3)CC2)cc1`, the remaining at 0.5 h, 10 µM in data set [2] is 19%. The same molecule yielded a logKw in data set [3] of 0.32.
For `N#Cc1ccc(CNC(=O)CCOCCN2CCN(c3ncccc3-c3ccccc3)CC2)cc1`, the Ki in data set [1] is 595 nM; in data set [4], 76 nM; in data set [6], 1630 nM. The remaining at 0.5 h, 10 µM in data set [2] fell in the range of 1.6 to 3%. Further, in data set [3], the logKw amounted to 0.11.
Consider `O=C(CCCCCN1CCN(c2ccccc2-c2ccccc2)CC1)NCc1ccc(OCCO)cc1`, for which the remaining at 0.5 h, 10 µM in data set [2] worked out at 10%. Moreover, the Ki stood at 259 nM in data set [4] and 4.5 nM in data set [5].
For the molecule `O=C(CCOCCN1CCN(c2cccnc2-c2ccc(F)cc2)CC1)NCc1ccc(C(F)(F)F)cc1`, the Ki is 6060 nM in data set [1]; 3460 nM on D(2) dopamine receptor; 254 nM in data set [4]; 263 nM in data set [5]; 2630 nM in data set [6]. For the same molecule, in data set [2], the remaining at 0.5 h, 10 µM worked out at 6%. The molecule also had a logKw in data set [3] of 0.14.
For `O=C(CCOCCN1CCN(c2ccccc2-c2ccccc2)CC1)NCc1ccncc1`, the Ki stood at 1050 nM in data set [1]; 2450 nM at D(2) dopamine receptor; 53 nM in data set [4]; 94 nM in data set [5]; 2520 nM in data set [6]. The remaining at 0.5 h, 10 µM in data set [2] was determined as 13%. Also, in data set [3], the logKw worked out at 0.27.
Consider `O=C(CCOCCN1CCN(c2ccccc2-c2ccccc2)CC1)NCc1ccc(C(F)(F)F)cc1`, for which the Ki turned out to be 345 nM on D(2) dopamine receptor, 245 nM in data set [5] and 830 nM in data set [6]. In addition, the remaining at 0.5 h, 10 µM in data set [2] came to 3%. Moreover, in data set [3], the logKw is given as 0.75.
Consider `COc1ccc(-c2ccccc2N2CCN(CCCCCC(=O)N[C@H](C)c3ccccc3)CC2)cc1`, for which the Ki is 134 nM in data set [1]; 295 nM at D(2) dopamine receptor; 11.5 nM in data set [4]; 36 nM in data set [5]; 721 nM in data set [6]. The remaining at 0.5 h, 10 µM in data set [2] was 0.7 to 3%. Further, the logKw in data set [3] is given as 0.71.
For `C[C@@H](NC(=O)CCCCCN1CCN(c2ccccc2-c2ccccc2)CC1)c1ccccc1`, the inhibition constant (Ki) in data set [1] was found to be 80 nM; at D(2) dopamine receptor, 116 nM; in data set [4] it was 10.5 nM; in data set [5] it was 36.6 nM; in data set [6], 561 nM. Also, the remaining at 0.5 h, 10 µM in data set [2] came to 9%. This molecule had a logKw in data set [3] of 0.75.
On to `N#Cc1ccc(CNC(=O)CCOCCN2CCN(c3ccccc3-c3ccccc3)CC2)cc1`, for which the remaining at 0.5 h, 10 µM in data set [2] came out at 5%. Further, the logKw in data set [3] turned out to be 0.41. In addition, the Ki amounted to 9.3 nM in data set [5] and 148 nM in data set [6].
As to `COc1ccc(-c2ccccc2N2CCN(CCCCCC(=O)NCc3ccccn3)CC2)cc1`, the remaining at 0.5 h, 10 µM in data set [2] is 6%. Further, the logKw in data set [3] is reported as 0.47.
For `COc1ccc(-c2ccccc2N2CCN(CCOCCC(=O)NCc3ccncc3)CC2)cc1`, the remaining at 0.5 h, 10 µM in data set [2] amounted to 25%. In data set [3], this molecule registered a logKw of 0.25.
In the same order, the values of `O=C(CCCCCN1CCN(c2ccccc2-c2ccccc2)CC1)NCc1ccccc1` are below 3% and 0.68.
On to `C[C@H]1CN(c2ccccc2-c2ccccc2)CCN1CCCCCC(=O)NCc1ccccc1`, for which the Ki was found to be 202 nM in data set [1]; 243 nM on D(2) dopamine receptor; 36.5 nM in data set [4]; 42.6 nM in data set [5]; 395 nM in data set [6]. In data set [2], the remaining at 0.5 h, 10 µM amounted to 5%. In data set [3], this molecule registered a logKw of 0.59.
For `C[C@H](NC(=O)CCCCCN1CCN(c2ccccc2-c2ccccc2)CC1)c1ccccc1`, the Ki in data set [1] turned out to be 66 nM; on D(2) dopamine receptor, 53 nM; in data set [4] it was 10 nM; in data set [5], 46.4 nM; in data set [6], 480 nM. For the same molecule, the remaining at 0.5 h, 10 µM in data set [2] came to 16%. The same molecule returned a logKw in data set [3] of 0.75.
Consider `COCOc1ccc(CNC(=O)CCCCCN2CCN(c3ccccc3-c3ccc(OC)cc3)CC2)cc1`, for which the Ki stood at 160 nM in data set [1]; 321 nM at D(2) dopamine receptor; 6.5 nM in data set [4]; 5.9 nM in data set [5]; 640 nM in data set [6]. Moreover, the remaining at 0.5 h, 10 µM in data set [2] turned out to be 8.3%. For the same molecule, in data set [3], the logKw worked out at 0.38.
Consider `CN(C)Cc1ccc(CNC(=O)CCCCCN2CCN(c3ccccc3-c3ccccc3)CC2)cc1`, for which the Ki in data set [1] amounted to 74 nM; at D(2) dopamine receptor it was 75 nM; in data set [4] it was 21 nM; in data set [5] it was 23 nM; in data set [6], 1510 nM. For the same molecule, the remaining at 0.5 h, 10 µM in data set [2] lay within 3 to 5%. In data set [3], this molecule came in with a logKw of 0.68.
With `N#Cc1ccc(CNC(=O)CCOCCN2CCN(c3cccnc3-c3ccc(F)cc3)CC2)cc1`, the inhibition constant Ki in data set [1] stood at 6630 nM; on D(2) dopamine receptor, 1960 nM; in data set [4], 108 nM; in data set [5] it was 914 nM; in data set [6], 2810 nM. The remaining at 0.5 h, 10 µM in data set [2] was 9%. The molecule further returned a logKw in data set [3] of -0.09.
As for `COc1ccc(-c2ccccc2N2CCN(CCCCCC(=O)NCc3ccc(OCCN4CCOCC4)cc3)CC2)cc1`, the Ki in data set [1] is 163 nM; on D(2) dopamine receptor, 375 nM; in data set [4], 25 nM; in data set [5], 26 nM; in data set [6], 1710 nM. The remaining at 0.5 h, 10 µM in data set [2] stood at 15%. For the same molecule, the logKw in data set [3] is given as 0.57.
On to `CS(=O)(=O)Oc1ccc(CNC(=O)CCCCCN2CCN(c3ccccc3-c3ccccc3)CC2)cc1`, for which the remaining at 0.5 h, 10 µM in data set [2] is below 3%.
